This is an account of results in US10544147B2, “Purine inhibitors of human phosphatidylinositol 3-kinase delta” (MERCK SHARP & DOHME CORP., priority 2016, dated 2020).

The target in one experiment is PI3Kdelta (Homo sapiens (Human), UniProt O00329). The experiment can be described thus: HTRF PI3K biochemical assay, delta isoform. Particulars: 0.3 nM enzyme, 100 uM ATP, 50 uM PIP2; form screened (neutral or TFA salt). The protocol: (§1) HTRF PI3K Biochemical Assay to Measure Intrinsic Potency of Compound Inhibitors
(§2) This loss of signal is nonlinear with respect to both increasing product and time. This non-linear detection will impact accuracy of IC50 calculations; therefore, there is a need for a correction factor to obtain more accurate IC50 values. This correction is derived from a PIP3 standard curve run in a separate assay plate. All data were calculated using the ratio of acceptor (APC) to donor (Europium) fluorescence in each well of the assay plate. […] An IC50 was then calculated fitting the % inhibition data to the equation: % inhibition=min+(Max−min)/1+([inhibitor]/IC50)^n) where min is the % inhibition with inhibitor, max is the signal in DMSO control, and n is the Hill slope.
(§3) The biological data was collected using the methodology described above.
On the technique in general: TR-FRET usually uses a lanthanide donor and a delayed reading to cut background.

The next experiment concerns the target PI3Kalpha (Homo sapiens (Human), UniProt P42336). The experiment can be described thus: HTRF PI3K biochemical assay, alpha isoform (selectivity versus delta). The following applies: ratio PI3K-alpha IC50 value/PI3K-delta IC50 value. As for the experimental part:
as §1, §2, §3
The determination of relative selectivity for a given compound is defined as the relative ratio of the (PI3K-alphaIC50 value/PI3K-delta IC50 value).

A value given as a limit tells only on which side of the number the result lay.

Sequence of PI3Kdelta (O00329 whole entry, canonical isoform): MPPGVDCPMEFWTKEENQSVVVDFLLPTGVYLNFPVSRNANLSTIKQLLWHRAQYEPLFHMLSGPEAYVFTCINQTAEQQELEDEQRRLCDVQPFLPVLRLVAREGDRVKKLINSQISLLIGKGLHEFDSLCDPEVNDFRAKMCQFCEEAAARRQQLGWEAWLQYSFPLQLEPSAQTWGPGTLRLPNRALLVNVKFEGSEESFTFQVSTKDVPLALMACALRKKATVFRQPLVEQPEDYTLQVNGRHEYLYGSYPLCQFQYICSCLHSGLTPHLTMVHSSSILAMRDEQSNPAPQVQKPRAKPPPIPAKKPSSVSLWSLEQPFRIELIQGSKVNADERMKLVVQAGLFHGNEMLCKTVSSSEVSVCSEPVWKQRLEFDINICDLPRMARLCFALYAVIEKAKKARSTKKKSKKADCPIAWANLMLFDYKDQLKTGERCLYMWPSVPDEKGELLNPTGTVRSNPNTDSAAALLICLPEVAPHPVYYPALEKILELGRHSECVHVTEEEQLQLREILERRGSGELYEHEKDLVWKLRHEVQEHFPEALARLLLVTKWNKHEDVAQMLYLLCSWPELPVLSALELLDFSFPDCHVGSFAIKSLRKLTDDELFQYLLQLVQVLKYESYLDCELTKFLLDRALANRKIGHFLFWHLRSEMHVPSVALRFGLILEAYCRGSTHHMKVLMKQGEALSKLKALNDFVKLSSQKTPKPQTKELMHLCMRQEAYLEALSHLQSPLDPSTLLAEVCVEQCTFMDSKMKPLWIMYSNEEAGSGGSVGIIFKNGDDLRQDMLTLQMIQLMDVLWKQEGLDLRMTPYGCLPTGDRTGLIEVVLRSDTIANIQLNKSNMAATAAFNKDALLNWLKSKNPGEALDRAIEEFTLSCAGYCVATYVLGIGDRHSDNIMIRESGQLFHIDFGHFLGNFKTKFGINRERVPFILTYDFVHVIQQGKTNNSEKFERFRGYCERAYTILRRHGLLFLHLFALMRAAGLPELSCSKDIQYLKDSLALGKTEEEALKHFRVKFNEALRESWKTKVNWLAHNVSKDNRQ
Sequence of PI3Kdelta (P27986 whole entry partner, canonical isoform): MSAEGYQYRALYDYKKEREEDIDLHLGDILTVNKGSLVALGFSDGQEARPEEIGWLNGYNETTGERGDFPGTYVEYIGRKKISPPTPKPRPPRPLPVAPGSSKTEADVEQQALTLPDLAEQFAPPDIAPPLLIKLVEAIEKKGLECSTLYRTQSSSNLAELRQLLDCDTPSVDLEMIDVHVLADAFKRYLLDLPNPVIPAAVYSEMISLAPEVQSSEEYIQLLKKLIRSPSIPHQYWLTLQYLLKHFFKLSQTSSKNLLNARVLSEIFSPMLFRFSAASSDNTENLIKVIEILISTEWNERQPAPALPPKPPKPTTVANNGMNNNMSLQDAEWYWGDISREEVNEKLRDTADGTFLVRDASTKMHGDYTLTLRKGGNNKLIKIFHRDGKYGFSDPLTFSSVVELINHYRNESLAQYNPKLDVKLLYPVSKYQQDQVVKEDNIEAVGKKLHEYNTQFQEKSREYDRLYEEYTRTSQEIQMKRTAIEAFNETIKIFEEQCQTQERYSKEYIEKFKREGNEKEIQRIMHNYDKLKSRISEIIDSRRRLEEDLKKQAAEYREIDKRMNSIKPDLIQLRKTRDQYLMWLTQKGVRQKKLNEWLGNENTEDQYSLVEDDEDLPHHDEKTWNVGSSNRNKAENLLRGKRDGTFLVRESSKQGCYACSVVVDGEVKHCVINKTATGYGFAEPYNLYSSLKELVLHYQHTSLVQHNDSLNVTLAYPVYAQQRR
Sequence of PI3Kalpha (P42336 whole entry, canonical isoform): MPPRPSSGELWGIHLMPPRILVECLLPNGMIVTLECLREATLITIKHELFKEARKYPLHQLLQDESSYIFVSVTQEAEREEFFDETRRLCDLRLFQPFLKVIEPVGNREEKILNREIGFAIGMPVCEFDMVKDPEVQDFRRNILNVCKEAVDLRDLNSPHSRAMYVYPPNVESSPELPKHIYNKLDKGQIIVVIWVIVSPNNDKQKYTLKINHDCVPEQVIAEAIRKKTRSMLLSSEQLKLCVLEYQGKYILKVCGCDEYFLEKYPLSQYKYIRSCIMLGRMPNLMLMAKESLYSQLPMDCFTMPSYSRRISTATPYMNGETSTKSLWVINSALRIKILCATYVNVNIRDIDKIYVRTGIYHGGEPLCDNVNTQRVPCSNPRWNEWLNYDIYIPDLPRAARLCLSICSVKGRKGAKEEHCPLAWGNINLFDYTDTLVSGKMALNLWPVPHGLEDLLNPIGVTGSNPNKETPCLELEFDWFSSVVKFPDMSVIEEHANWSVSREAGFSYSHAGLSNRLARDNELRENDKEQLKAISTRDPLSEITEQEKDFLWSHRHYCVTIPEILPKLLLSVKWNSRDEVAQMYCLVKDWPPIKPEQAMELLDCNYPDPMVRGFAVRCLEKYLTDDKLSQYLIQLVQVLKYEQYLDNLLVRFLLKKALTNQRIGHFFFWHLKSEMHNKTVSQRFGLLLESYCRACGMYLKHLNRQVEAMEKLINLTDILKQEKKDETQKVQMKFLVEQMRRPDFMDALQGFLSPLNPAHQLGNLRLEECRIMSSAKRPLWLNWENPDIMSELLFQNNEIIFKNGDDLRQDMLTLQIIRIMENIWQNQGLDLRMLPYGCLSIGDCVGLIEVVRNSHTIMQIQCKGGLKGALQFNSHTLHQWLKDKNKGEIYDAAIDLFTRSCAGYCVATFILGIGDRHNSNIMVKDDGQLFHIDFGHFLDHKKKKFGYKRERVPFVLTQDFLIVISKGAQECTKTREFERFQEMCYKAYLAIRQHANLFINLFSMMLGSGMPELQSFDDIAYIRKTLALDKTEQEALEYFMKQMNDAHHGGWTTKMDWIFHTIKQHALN
Sequence of PI3Kalpha (P27986 whole entry partner, canonical isoform): as the sequence (P27986 whole entry partner, canonical isoform) above

For `CCn1c(-c2cnc(C)nc2)nc2c(-c3ccc4oc(=O)n(C(C)c5ccccc5)c4c3)ncnc21` (single isomer, unassigned) [Compound 5-1, (R or S)-5-[9-ethyl-8-(2-methylpyrimidin-5-yl)-9H-purin-6-yl]-3-(1-phenylethyl)-1,3-benzoxazol-2(3H)-one], at PI3Kdelta, the IC50 is 14 nM. Besides, the “Relative Selectivity versus PI3Kalpha” value at PI3Kalpha is above 10.

In the case of `Cc1ncc(-c2nc3c(-c4cnc5c(c4)C(C)(NCC(C)(C)F)C(=O)N5)ncnc3n2C)cn1` (single isomer, unassigned) [Compound 2-60, (S or R)-5-(9-methyl-8-(2-methylpyrimidin-5-yl)-9H-purin-6-yl)-3-((2-fluoro-2-methylpropyl)amino)-3-methyl-1H-pyrrolo[2,3-b]pyridin-2(3H)-one], the IC50 on PI3Kdelta was found to be 133 nM. Besides, the “Relative Selectivity versus PI3Kalpha” value on PI3Kalpha is reported as 8.

As for `CCn1c(-c2cnc(C)nc2)nc2c(-c3cnc4c(c3)C(C)(N3CC(C)(C#N)C3)C(=O)N4)ncnc21` (single isomer, unassigned) [Compound 2-53, (S or R)-1-(5-(9-ethyl-8-(2-methylpyrimidin-5-yl)-9H-purin-6-yl)-3-methyl-2-oxo-2,3-dihydro-1H-pyrrolo[2,3-b]pyridin-3-yl)-3-methylazetidine-3-carbonitrile], the IC50 at PI3Kdelta came to 4 nM. For the same compound, the “Relative Selectivity versus PI3Kalpha” value on PI3Kalpha was above 10.

Take `Cc1ncc(-c2nc3c(-c4ccc5c(c4)C4(CCCN4C(=O)C4CC4)C(=O)N5CC(C)(C)O)ncnc3n2C)cn1` (single isomer, unassigned) [Compound 3-17, (R or S)-1′-(cyclopropanecarbonyl)-1-(2-hydroxy-2-methylpropyl)-5-(9-methyl-8-(2-methylpyrimidin-5-yl)-9H-purin-6-yl)spiro[indoline-3,2′-pyrrolidin]-2-one]: the half-maximal inhibitory concentration (IC50) on PI3Kdelta came to 2.5 nM. In addition, the “Relative Selectivity versus PI3Kalpha” value on PI3Kalpha is on record as above 10.

For `CCn1c(-c2cnc(C)nc2)nc2c(-c3ccc4c(c3)C(C)(N3C[C@@H](F)[C@H](F)C3)C(=O)N4)ncnc21` (single isomer, unassigned) [Compound 2-62, 3-(R or S)-((3R,4R)-3,4-difluoropyrrolidin-1-yl)-5-(9-ethyl-8-(2-methylpyrimidin-5-yl)-9H-purin-6-yl)-3-methylindolin-2-one], the IC50 on PI3Kdelta is 6 nM. For the same compound, the “Relative Selectivity versus PI3Kalpha” value on PI3Kalpha is given as above 10.

For the compound `CCn1c(-c2cnc(C)nc2)nc2c(-c3ccc4c(c3)C(C)(CC(C)C)C(=O)N4)ncnc21` (single isomer, unassigned) [Compound 1-1, 5-(9-Ethyl-8-(2-methylpyrimidin-5-yl)-9H-purin-6-yl)-3-isobutyl-3-methylindolin-2-one], the 50% inhibitory concentration (IC50) on PI3Kdelta came out at 4 nM. Moreover, at PI3Kalpha, the “Relative Selectivity versus PI3Kalpha” value is reported as above 10.

On to `CCn1c(-c2cnc(C)nc2)nc2c(-c3ccc4c(c3)C(C)(NCC3CCC3)C(=O)N4)ncnc21` (racemic) [Compound 2-20, (R and S)-3-[(cyclobutylmethyl)amino]-5-[9-ethyl-8-(2-methylpyrimidin-5-yl)-9H-purin-6-yl]-3-methyl-1,3-dihydro-2H-indol-2-one], for which the concentration for half-maximal inhibition (IC50) at PI3Kdelta stood at 23 nM. For the same compound, the “Relative Selectivity versus PI3Kalpha” value at PI3Kalpha is reported as above 10.

For `Cc1ncc(-c2nc3c(-c4ccc5c(c4)C4(CCCN4C(C)C)C(=O)N5)ncnc3n2C)cn1` (single isomer, unassigned) [Compound 3-13, (R or S)-1′-isopropyl-5-(9-methyl-8-(2-methylpyrimidin-5-yl)-9H-purin-6-yl)spiro[indoline-3,2′-pyrrolidin]-2-one], the IC50 at PI3Kdelta amounted to 45 nM. Moreover, the “Relative Selectivity versus PI3Kalpha” value on PI3Kalpha is reported as above 10.

Regarding `CCn1c(-c2cnc(C)nc2)nc2c(-c3ccc4c(c3)C(C)(N[C@H]3C[C@H](OC)C3)C(=O)N4)ncnc21` (single isomer, unassigned) [Compound 2-82, 5-(9-ethyl-8-(2-methylpyrimidin-5-yl)-9H-purin-6-yl)-3-(((1R,3R)-3-methoxycyclobutyl)amino)-3(R or S)-methylindolin-2-one], on PI3Kdelta, the IC50 was 1570 nM. For the same compound, the “Relative Selectivity versus PI3Kalpha” value on PI3Kalpha is reported as 8.

In the case of `Cc1ncc(-c2nc3c(-c4ccc5c(c4)C(C)(NCC(C)(F)F)C(=O)N5)ncnc3n2C)cn1` (single isomer, unassigned) [Compound 2-70, (R or S)-3-((2,2-difluoropropyl)amino)-3-methyl-5-(9-methyl-8-(2-methylpyrimidin-5-yl)-9H-purin-6-yl)indolin-2-one], the IC50 on PI3Kdelta was 4 nM. The “Relative Selectivity versus PI3Kalpha” value at PI3Kalpha was above 10.

For the compound `CCn1c(-c2cnc(C)nc2)nc2c(-c3ccc4c(c3)C(C)(N3CC(C)(O)C3)C(=O)N4)ncnc21` (single isomer, unassigned) [Compound 2-81, (R or S)-5-(9-ethyl-8-(2-methylpyrimidin-5-yl)-9H-purin-6-yl)-3-(3-hydroxy-3-methylazetidin-1-yl)-3-methylindolin-2-one], the IC50 at PI3Kdelta amounted to 26 nM. The “Relative Selectivity versus PI3Kalpha” value on PI3Kalpha was above 10.

For `CCn1c(-c2cnc(C)nc2)nc2c(-c3ccc4c(c3)C(C)(CC(C)C)NS4(=O)=O)ncnc21` (single isomer, unassigned) [Compound 4-5, (R or S)-9-ethyl-6-[3-methyl-3-(2-methylpropyl)-1,1-dioxido-2,3-dihydro-1,2-benzisothiazol-5-yl]-8-(2-methylpyrimidin-5-yl)-9H-purine], the IC50 at PI3Kdelta is 6 nM. Further, the “Relative Selectivity versus PI3Kalpha” value at PI3Kalpha is reported as above 10.

On to `CCn1c(-c2cnc(C)nc2)nc2c(-c3ccc4c(c3)C3(CCCN3S(C)(=O)=O)C(=O)N4C)ncnc21` (single isomer, unassigned) [Compound 3-24, (R or S)-5-(9-ethyl-8-(2-methylpyrimidin-5-yl)-9H-purin-6-yl)-1-methyl-1′-(methylsulfonyl)spiro[indoline-3,2′-pyrrolidin]-2-one], for which the IC50 on PI3Kdelta stood at 32 nM. Moreover, the “Relative Selectivity versus PI3Kalpha” value at PI3Kalpha is above 10.

As for `CCn1c(-c2cnc(C)nc2)nc2c(-c3ccc4c(c3)C(C)(N3CC(OC)C3)C(=O)N4)ncnc21` (single isomer, unassigned) [Compound 2-79, (R or S)-5-(9-ethyl-8-(2-methylpyrimidin-5-yl)-9H-purin-6-yl)-3-(3-methoxyazetidin-1-yl)-3-methylindolin-2-one], on PI3Kdelta, the IC50 was found to be 15 nM. In addition, the “Relative Selectivity versus PI3Kalpha” value on PI3Kalpha is given as above 10.

With `CCn1c(-c2cnc(C)nc2)nc2c(-c3ccc4c(c3)C(C)(NC(C)C)C(=O)N4)ncnc21` (single isomer, unassigned) [Compound 2-31, (R or S)-5-[9-ethyl-8-(2-methylpyrimidin-5-yl)-9H-purin-6-yl]-3-methyl-3-[(1-methylethyl)amino]-1,3-dihydro-2H-indol-2-one], on PI3Kdelta, the IC50 came to 479 nM. Further, the “Relative Selectivity versus PI3Kalpha” value on PI3Kalpha is above 10.

With `CCn1c(-c2cnc(C)nc2)nc2c(-c3ccc4c(c3)C(C)(OCC(C)(C)F)C(=O)N4)ncnc21` (single isomer, unassigned) [Compound 2-56, (R or S)-5-(9-ethyl-8-(2-methylpyrimidin-5-yl)-9H-purin-6-yl)-3-(2-fluoro-2-methylpropoxy)-3-methylindolin-2-one], the IC50 on PI3Kdelta amounted to 3 nM. Moreover, at PI3Kalpha, the “Relative Selectivity versus PI3Kalpha” value is above 10.

Usually IC50 stands for the point on the concentration scale where inhibition reaches its midpoint.
